Structures are written as SMILES.

A short description of this data set: Stability Test: storage of SL formulations in sealed bottles at 54° C. for 14 days. Conditions: acid at 1% (Table 1) or 1-3% (Table 3) in 24% oxamyl SL. Format: physicochemical. The procedure:
Samples of the compositions summarised in Table 1 above were packaged in commercially available 500 ml fluorinated plastic bottles and the bottles sealed. The bottles were stored at 54° C. for 14 days. Thereafter, the bottles were cooled to room temperature and their appearance assessed. The concentration of the active ingredient, oxamyl, in each bottle was measured.
Samples of the compositions summarised in Table 3 above were packaged in commercially available 500 ml fluorinated plastic bottles and the bottles sealed. The bottles were stored at 54° C. for 14 days. Thereafter, the bottles were cooled to room temperature and their appearance assessed. The concentration of the active ingredient, oxamyl, in each bottle was measured.
Regarding `O=C(O)CC(O)(CC(=O)O)C(=O)O` [citric acid], the “stabilisation / chemical degradation of the oxamyl active ingredient (in words)” value is reported as “significantly reduced the chemical degradation”.
In the case of `OB(O)O` [boric acid] it was “not effective in stabilising the oxamyl active ingredient”; in that of `Cl` [hydrochloric acid], “significantly reduced the chemical degradation”; in that of `O=P(O)(O)O` [phosphoric acid], “significantly reduced the chemical degradation”.
Then `CC(=O)O` [Acetic acid], with “significantly reduced the chemical degradation”.
